The values that follow come from patent US20070078143A1, “Method for preparing Ziprasidone monohydrochloride-hydrate” (Wockhardt Limited, priority 2003, published 2007).

Series [1] is described as follows: Moisture re-absorption of the dried (anhydrous) salt on exposure to humidity. Format: physicochemical. Conditions: after prolonged drying to anhydrous (moisture content up to 0.7% by weight); exposed at 60% relative humidity. From the text:
Anhydrous Ziprasidone monohydrochloride is disclosed in U.S. Pat. No. 5,312,925. The Ziprasidone monohydrochloride-hydrate of the present invention can be made anhydrous having moisture content up to 0.7% by weight, after prolonged drying. It has been observed that the compound re-absorbs moisture up to 6% when it is exposed at 60% relative humidity.

The nature of series [2]: Solubility in common organic solvents. The class given is physicochemical. On the procedure: Therefore, another objective of the present invention is to find a suitable solvent or solvent mixture to purify crude Ziprasidone base to obtain the required purity with minimal loss of material. The crude Ziprasidone obtained from step (a) is dissolved in a mixture of tetrahydrofuran and N,N-dimethylformamide (7:3, v/v) with activated charcoal and heated to clarify the solution. The solution obtained is filtered, washed with a cold solvent mixture of THF and DMF and dried. The dried Ziprasidone is obtained in 99% HPLC purity.

Structures can show the parent of a compound that is named as a salt.

Turning to `O=C1Cc2cc(CCN3CCN(c4nsc5ccccc45)CC3)c(Cl)cc2N1` [Ziprasidone monohydrochloride-hydrate, 5-(2-(4-1,2-benzisothiazol-3-yl)piperazinyl)ethyl)-6-chloro-1,3-dihydro-2H-indol-2-one Monohydrochloride-hydrate], the moisture re-absorbed entry in series [1] is “up to 6%”. For the molecule `O=C1Cc2cc(CCN3CCN(c4nsc5ccccc45)CC3)c(Cl)cc2N1` [Ziprasidone, 5-(2-(4-(1,2-benzisothiazol-3-yl)-1-piperazinyl)ethyl)-6-chloro-1,3-dihydro-2H-indole-2-one], the “solubility in most of the common organic solvents” value in series [2] was “poor solubility”.
